Test results published in ChEMBL document CHEMBL3580659, “One-pot multicomponent synthesis of indole incorporated thiazolylcoumarins and their antibacterial, anticancer and DNA cleavage studies” (2015).

Experiments:
Type in all cases: functional
NCI-H23 [1] = assay: Cytotoxicity against human NCI-H23 cells assessed as cell growth level at 1 uM after 48 hrs by sulforhodamine B assay
NCI-H322M = assay: Cytotoxicity against human NCI-H322M cells assessed as cell growth level at 100 uM after 48 hrs by sulforhodamine B assay
DU-145 = assay: Cytotoxicity against human DU145 cells assessed as cell growth level at 100 uM after 48 hrs by sulforhodamine B assay
ACHN = assay: Cytotoxicity against human ACHN cells after 48 hrs by sulforhodamine B assay
HCC 2998 = assay: Cytotoxicity against human HCC2998 cells after 48 hrs by sulforhodamine B assay; conditions: HCC 2998, 48 h
UACC-62 [2] = assay: Cytotoxicity against human UACC62 cells assessed as cell growth level at 100 nM after 48 hrs by sulforhodamine B assay
HCT-15 = assay: Cytotoxicity against human HCT15 cells after 48 hrs by sulforhodamine B assay; conditions: HCT-15, 48 h
SK-MEL-28 [3] = assay: Cytotoxicity against human SK-MEL-28 cells assessed as cell growth level at 1 uM after 48 hrs by sulforhodamine B assay
NCI-H522 = assay: Cytotoxicity against human NCI-H522 cells after 48 hrs by sulforhodamine B assay; conditions: NCI-H522, 48 h
UACC-62 [4] = assay: Cytotoxicity against human UACC62 cells assessed as cell growth level at 1 uM after 48 hrs by sulforhodamine B assay
MDA-MB-231 = assay: Cytotoxicity against human MDA-MB-231/ATCC cells assessed as cell growth level at 1 uM after 48 hrs by sulforhodamine B assay
MDA-MB-435 [5] = assay: Cytotoxicity against human MDA-MB-435 cells assessed as cell growth level at 100 uM after 48 hrs by sulforhodamine B assay
NCI-H23 [6] = assay: Cytotoxicity against human NCI-H23 cells assessed as cell growth level at 100 uM after 48 hrs by sulforhodamine B assay
HL-60(TB) = assay: Cytotoxicity against human HL-60(TB) cells assessed as cell growth level at 100 uM after 48 hrs by sulforhodamine B assay
OVCAR-4 [7] = assay: Cytotoxicity against human OVCAR4 cells assessed as cell growth level at 10 uM after 48 hrs by sulforhodamine B assay
OVCAR-8 = assay: Cytotoxicity against human OVCAR8 cells after 48 hrs by sulforhodamine B assay; conditions: OVCAR-8, 48 h
IGROV-1 [8] = assay: Cytotoxicity against human IGROV1 cells assessed as cell growth level at 100 nM after 48 hrs by sulforhodamine B assay
OVCAR-4 [9] = assay: Cytotoxicity against human OVCAR4 cells assessed as cell growth level at 1 uM after 48 hrs by sulforhodamine B assay
UACC-62 [10] = assay: Cytotoxicity against human UACC62 cells after 48 hrs by sulforhodamine B assay; conditions: UACC-62, 48 h
SK-OV-3 = assay: Cytotoxicity against human SKOV3 cells after 48 hrs by sulforhodamine B assay; conditions: SK-OV-3, 48 h
SF-295 = assay: Cytotoxicity against human SF295 cells after 48 hrs by sulforhodamine B assay; conditions: SF-295, 48 h
A549 [11] = assay: Cytotoxicity against human A549/ATCC cells assessed as cell growth level at 10 nM after 48 hrs by sulforhodamine B assay
A549 [12] = assay: Cytotoxicity against human A549/ATCC cells assessed as cell growth level at 100 nM after 48 hrs by sulforhodamine B assay
RXF 393 = assay: Cytotoxicity against human RXF393 cells assessed as cell growth level at 10 uM after 48 hrs by sulforhodamine B assay
Malme-3M = assay: Cytotoxicity against human MALME-3M cells after 48 hrs by sulforhodamine B assay
OVCAR-4 [13] = assay: Cytotoxicity against human OVCAR4 cells assessed as cell growth level at 100 nM after 48 hrs by sulforhodamine B assay
SW-620 = assay: Cytotoxicity against human SW620 cells assessed as cell growth level at 1 uM after 48 hrs by sulforhodamine B assay
SK-MEL-28 [14] = assay: Cytotoxicity against human SK-MEL-28 cells assessed as cell growth level at 100 nM after 48 hrs by sulforhodamine B assay
SNB-75 = assay: Cytotoxicity against human SNB75 cells assessed as cell growth level at 1 uM after 48 hrs by sulforhodamine B assay
IGROV-1 [15] = assay: Cytotoxicity against human IGROV1 cells after 48 hrs by sulforhodamine B assay; conditions: IGROV-1, 48 h
MDA-MB-435 [16] = assay: Cytotoxicity against human MDA-MB-435 cells after 48 hrs by sulforhodamine B assay; conditions: MDA-MB-435, 48 h
[17] = read-out: LC50 (the source's name)
[18] = read-out: pLC50 (the source's name) (converted)

In the case of O=c1oc2ccccc2cc1-c1csc(N/N=C/c2c[nH]c3ccccc23)n1, the Activity (NCI-H23 [1]) is reported as 83%, the Activity (NCI-H322M) is reported as -10% and the Activity (DU-145) is reported as -2%. For the same compound, the GI50 (ACHN; read-out: GI50) was 1.31 µM, the CC50 (ACHN; [17]) was 70.8 µM and the TGI (ACHN; read-out: TGI) was 4.36 µM. It also gave a GI50 (ACHN; read-out: pGI50 (converted)) of 1.32 µM, a CC50 (ACHN; [18]) of 70.8 µM and a TGI (ACHN; read-out: pTGI (converted)) of 4.37 µM. The GI50 (HCC 2998; read-out: GI50) was 2.82 µM, the CC50 (HCC 2998; [17]) was > 100 µM and the TGI (HCC 2998; read-out: TGI) was 6.8 µM. The GI50 (HCC 2998; read-out: pGI50 (converted)) was 2.82 µM, the CC50 (HCC 2998; [18]) was > 100 µM and the TGI (HCC 2998; read-out: pTGI (converted)) was 6.76 µM. The Activity (UACC-62 [2]) was 96%, the GI50 (HCT-15; read-out: GI50) was 1.61 µM and the CC50 (HCT-15; [17]) was 7.46 µM. For the same compound, the TGI (HCT-15; read-out: TGI) was 3.47 µM, the GI50 (HCT-15; read-out: pGI50 (converted)) was 1.62 µM and the CC50 (HCT-15; [18]) was 7.41 µM. It also gave a TGI (HCT-15; read-out: pTGI (converted)) of 3.47 µM, an Activity (SK-MEL-28 [3]) of 93% and a GI50 (NCI-H522; read-out: GI50) of 1.03 µM. For the same compound, the LC50 (50% lethal concentration) (NCI-H522; read-out: LC50) was 4.96 µM, the TGI (NCI-H522; read-out: TGI) was 2.26 µM and the GI50 (NCI-H522; read-out: pGI50 (converted)) was 1.02 µM. It also gave an LC50 (50% lethal concentration) (NCI-H522; read-out: pLC50 (converted)) of 5.01 µM, a TGI (NCI-H522; read-out: pTGI (converted)) of 2.24 µM and an Activity (UACC-62 [4]) of 69%. For the same compound, the Activity (MDA-MB-231) was 92%, the Activity (MDA-MB-435 [5]) was -69% and the Activity (NCI-H23 [6]) was -17%. For the same compound, the Activity (HL-60(TB)) was -23%, the Activity (OVCAR-4 [7]) was -4.09% and the GI50 (OVCAR-8; read-out: GI50) was 1.9 µM. The CC50 (OVCAR-8; [17]) was > 100 µM, the TGI (OVCAR-8; read-out: TGI) was 4.56 µM and the GI50 (OVCAR-8; read-out: pGI50 (converted)) was 1.91 µM. The CC50 (OVCAR-8; [18]) was > 100 µM, the TGI (OVCAR-8; read-out: pTGI (converted)) was 4.57 µM and the Activity (IGROV-1 [8]) was 107%. The Activity (OVCAR-4 [9]) was 85%, the GI50 (UACC-62 [10]; read-out: GI50) was 1.6 µM and the CC50 (UACC-62 [10]; [17]) was 7.11 µM. It also gave a TGI (UACC-62 [10]; read-out: TGI) of 3.38 µM, a GI50 (UACC-62 [10]; read-out: pGI50 (converted)) of 1.58 µM and a CC50 (UACC-62 [10]; [18]) of 7.08 µM. For the same compound, the TGI (UACC-62 [10]; read-out: pTGI (converted)) was 3.39 µM, the GI50 (SK-OV-3; read-out: GI50) was 3.95 µM and the CC50 (SK-OV-3; [17]) was > 100 µM. The TGI (SK-OV-3; read-out: TGI) was > 100 µM, the GI50 (SK-OV-3; read-out: pGI50 (converted)) was 3.98 µM and the CC50 (SK-OV-3; [18]) was > 100 µM. For the same compound, the TGI (SK-OV-3; read-out: pTGI (converted)) was 100 µM, the GI50 (SF-295; read-out: GI50) was 2.23 µM and the CC50 (SF-295; [17]) was > 100 µM. For the same compound, the TGI (SF-295; read-out: TGI) was 6.76 µM, the GI50 (SF-295; read-out: pGI50 (converted)) was 2.24 µM and the CC50 (SF-295; [18]) was > 100 µM. The TGI (SF-295; read-out: pTGI (converted)) was 6.76 µM, the Activity (A549 [11]) was 94% and the Activity (A549 [12]) was 92%. For the same compound, the Activity (RXF 393) was 25.19%, the GI50 (Malme-3M; read-out: GI50) was 1.59 µM and the CC50 (Malme-3M; [17]) was > 100 µM. For the same compound, the TGI (Malme-3M; read-out: TGI) was 4.17 µM, the GI50 (Malme-3M; read-out: pGI50 (converted)) was 1.58 µM and the CC50 (Malme-3M; [18]) was > 100 µM. It also gave a TGI (Malme-3M; read-out: pTGI (converted)) of 4.17 µM, an Activity (OVCAR-4 [13]) of 91% and an Activity (SW-620) of 72%. The Activity (SK-MEL-28 [14]) was 91%, the Activity (SNB-75) was 74% and the GI50 (IGROV-1 [15]; read-out: GI50) was 1.54 µM. For the same compound, the CC50 (IGROV-1 [15]; [17]) was > 100 µM, the TGI (IGROV-1 [15]; read-out: TGI) was 4.7 µM and the GI50 (IGROV-1 [15]; read-out: pGI50 (converted)) was 1.55 µM. The CC50 (IGROV-1 [15]; [18]) was > 100 µM, the TGI (IGROV-1 [15]; read-out: pTGI (converted)) was 4.68 µM and the GI50 (MDA-MB-435 [16]; read-out: GI50) was 2.1 µM. It also gave a CC50 (MDA-MB-435 [16]; [17]) of 25.2 µM, a TGI (MDA-MB-435 [16]; read-out: TGI) of 5.47 µM and a GI50 (MDA-MB-435 [16]; read-out: pGI50 (converted)) of 2.09 µM. It also gave a CC50 (MDA-MB-435 [16]; [18]) of 25.1 µM and a TGI (MDA-MB-435 [16]; read-out: pTGI (converted)) of 5.5 µM.
